In US10196390B2, “TYK2 inhibitors and uses thereof” (Nimbus Lakshmi, Inc., priority 2014, dated 2019):
Read-outs that look alike come from different tables or passages of the source.

What was measured:
Tyk2-pSTAT4 = assay: IL-12 induced pSTAT4 in human PBMC; assay type: cell-based; details: read-out: Tyk2-pSTAT4 EC50
How it was run: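 PBMC (200,000 cells/well) in serum-containing medium were preincubated with compound for 1 hr at 37 C, final DMSO 0.1%. Stimulation with 1.7 ng/mL IL-12 (final) for 30 minutes. pSTAT4 and total STAT4 were measured in lysates by MSD.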

TYK2 = TYK2 (Homo sapiens (Human), UniProt P29597); assay: Tyk2 activity inhibition assay (radioactive kinase assay / Caliper assay); assay type: biochemical
Chain of TYK2 (P29597 whole entry): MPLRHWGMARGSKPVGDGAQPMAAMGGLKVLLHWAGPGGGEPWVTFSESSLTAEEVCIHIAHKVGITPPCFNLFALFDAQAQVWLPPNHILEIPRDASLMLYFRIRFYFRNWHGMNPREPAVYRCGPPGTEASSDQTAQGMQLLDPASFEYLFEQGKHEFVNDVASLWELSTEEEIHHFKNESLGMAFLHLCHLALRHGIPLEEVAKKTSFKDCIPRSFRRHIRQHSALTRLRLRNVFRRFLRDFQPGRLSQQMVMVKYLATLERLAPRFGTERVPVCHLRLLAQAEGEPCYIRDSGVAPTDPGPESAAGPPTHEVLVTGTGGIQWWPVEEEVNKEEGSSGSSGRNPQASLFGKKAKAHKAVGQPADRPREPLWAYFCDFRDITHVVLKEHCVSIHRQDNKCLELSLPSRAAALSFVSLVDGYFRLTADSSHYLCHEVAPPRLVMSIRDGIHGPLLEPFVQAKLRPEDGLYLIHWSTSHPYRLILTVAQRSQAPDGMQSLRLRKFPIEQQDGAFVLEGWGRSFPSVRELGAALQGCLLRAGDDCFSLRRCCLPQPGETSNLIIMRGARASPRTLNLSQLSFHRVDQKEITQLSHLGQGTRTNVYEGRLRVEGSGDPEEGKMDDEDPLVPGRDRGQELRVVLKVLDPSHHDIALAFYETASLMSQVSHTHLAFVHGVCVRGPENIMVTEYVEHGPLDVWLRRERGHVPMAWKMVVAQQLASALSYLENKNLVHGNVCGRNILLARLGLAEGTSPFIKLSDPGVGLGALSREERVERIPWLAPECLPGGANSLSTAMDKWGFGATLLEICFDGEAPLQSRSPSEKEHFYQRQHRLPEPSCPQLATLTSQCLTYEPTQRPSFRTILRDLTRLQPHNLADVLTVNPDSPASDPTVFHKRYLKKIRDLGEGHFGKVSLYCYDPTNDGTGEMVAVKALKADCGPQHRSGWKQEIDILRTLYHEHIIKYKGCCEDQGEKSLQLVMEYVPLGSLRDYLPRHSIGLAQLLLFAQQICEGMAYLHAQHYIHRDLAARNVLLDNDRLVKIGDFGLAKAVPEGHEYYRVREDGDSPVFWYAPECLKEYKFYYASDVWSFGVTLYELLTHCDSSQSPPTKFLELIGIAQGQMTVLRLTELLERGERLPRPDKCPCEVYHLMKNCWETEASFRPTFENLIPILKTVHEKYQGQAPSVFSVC
How it was run: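 Radiometric format: TYK2 with peptide substrate (20 μM) and 33P-ATP at 10 μM in HEPES pH 7.5, 1% DMSO, 120 min at room temp, P81 paper capture. Caliper mobility-shift format: TYK2 9.75 nM, peptide 30 at 3 uM, ATP 16 uM (also 1 mM), 25 min at 28° C.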

JAK2 = JAK2 (Homo sapiens (Human), UniProt O60674); assay: JAK2 activity inhibition assay (radioactive kinase assay / Caliper assay); assay type: biochemical
Chain of JAK2 (O60674 whole entry): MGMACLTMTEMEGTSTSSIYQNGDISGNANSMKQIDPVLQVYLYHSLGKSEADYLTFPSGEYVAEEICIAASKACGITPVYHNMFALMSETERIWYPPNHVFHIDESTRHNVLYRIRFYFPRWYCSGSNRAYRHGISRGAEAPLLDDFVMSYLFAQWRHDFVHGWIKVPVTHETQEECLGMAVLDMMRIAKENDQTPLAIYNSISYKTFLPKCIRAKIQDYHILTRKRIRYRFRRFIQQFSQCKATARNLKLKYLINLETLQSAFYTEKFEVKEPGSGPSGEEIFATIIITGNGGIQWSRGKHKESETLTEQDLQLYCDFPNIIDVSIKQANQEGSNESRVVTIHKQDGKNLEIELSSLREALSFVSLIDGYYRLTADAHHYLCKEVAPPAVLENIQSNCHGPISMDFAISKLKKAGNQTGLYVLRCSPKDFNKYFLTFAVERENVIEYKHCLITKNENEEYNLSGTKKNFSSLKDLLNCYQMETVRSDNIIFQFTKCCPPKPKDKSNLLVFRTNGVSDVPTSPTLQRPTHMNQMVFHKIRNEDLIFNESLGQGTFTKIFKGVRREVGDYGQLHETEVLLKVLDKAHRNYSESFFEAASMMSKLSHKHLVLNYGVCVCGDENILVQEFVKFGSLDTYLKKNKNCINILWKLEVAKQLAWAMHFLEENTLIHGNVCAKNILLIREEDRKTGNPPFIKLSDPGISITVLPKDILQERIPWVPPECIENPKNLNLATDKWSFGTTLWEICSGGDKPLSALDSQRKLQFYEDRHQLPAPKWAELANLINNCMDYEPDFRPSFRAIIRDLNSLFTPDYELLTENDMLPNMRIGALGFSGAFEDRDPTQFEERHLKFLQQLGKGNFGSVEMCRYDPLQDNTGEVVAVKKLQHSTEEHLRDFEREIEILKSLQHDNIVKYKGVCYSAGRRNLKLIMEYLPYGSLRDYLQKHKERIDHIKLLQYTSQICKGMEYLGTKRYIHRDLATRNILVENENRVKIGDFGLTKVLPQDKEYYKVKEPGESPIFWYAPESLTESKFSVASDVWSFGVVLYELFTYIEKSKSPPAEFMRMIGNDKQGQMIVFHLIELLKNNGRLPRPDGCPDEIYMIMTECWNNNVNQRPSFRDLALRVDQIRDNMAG
How it was run: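 Mobility-shift (Caliper) read-out of phosphorylated peptide substrate. Compound diluted in 25 mM HEPES pH 7.5, 0.01% Brij-35, 0.01% Triton, 0.5 mM EGTA; enzyme added, then peptide plus ATP in 10 mM MgCl2. Incubated 25 min at 28° C, stopped with EDTA buffer.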

JAK2-pSTAT5 = assay: GM-CSF induced pSTAT5 in human PBMC; assay type: cell-based; details: read-out: JAK2-pSTAT5 EC50
[1] = IL-12 induced pSTAT4, human PBMC
[2] = GM-CSF induced pSTAT5, human PBMC

Structure (SMILES) | EC50 (Tyk2-pSTAT4; [1]) [µM] | Ki (TYK2) [µM] | Ki (JAK2; read-out: JAK2 Ki) [µM] | EC50 (JAK2-pSTAT5; [2]) [µM] | Ki (JAK2) [µM] | EC50 (Tyk2-pSTAT4; Homo sapiens, PBMC) [µM] | EC50 (JAK2-pSTAT5; Homo sapiens, PBMC) [µM]
CN1CCC(C)(c2ccc(Nc3nc(-c4c(F)cccc4F)nc4c3C(=O)NC4)cc2)C1=O (stereo not shown) [Compound I-150, 2-(2,6-difluorophenyl)-4-((4-(1,3-dimethyl-2-oxopyrrolidin-3-yl)phenyl)amino)-6,7-dihydro-5H-pyrrolo[3,4-d]pyrimidin-5-one] | < 2 | < 0.01 | 0.01 to 0.1 | 2 to 20 |  |  | 
O=C1NCc2nc(-c3c(F)cccc3F)nc(Nc3ccc([C@H]4CCNC4=O)cc3)c21 [Compound I-86, (R)-2-(2,6-difluorophenyl)-4-((4-(2-oxopyrrolidin-3-yl)phenyl)amino)-6,7-dihydro-5H-pyrrolo[3,4-d]pyrimidin-5-one] | < 2 | < 0.01 | 0.01 to 0.1 | > 20 |  |  | 
O=C1NCc2nc(-c3c(F)cccc3F)cc(Nc3ccc(N4CC(O)C4)cn3)c21 [Compound I-214, 2-(2,6-difluorophenyl)-4-((5-(3-hydroxyazetidin-1-yl)pyridin-2-yl)amino)-6,7-dihydro-5H-pyrrolo[3,4-b]pyridin-5-one] | < 2 | < 0.01 | 0.01 to 0.1 | 2 to 20 |  |  | 
CN1CCN(C(=O)Cc2ccc(Nc3nc(-c4c(F)cccc4F)nc4c3C(=O)NC4)cc2)CC1 [Compound I-67, 2-(2,6-difluorophenyl)-4-((4-(2-(4-methylpiperazin-1-yl)-2-oxoethyl)phenyl)amino)-6,7-dihydro-5H-pyrrolo[3,4-d]pyrimidin-5-one] | < 2 | < 0.01 |  | > 20 | 0.01 to 0.1 |  | 
O=C1NCc2nc(-c3c(F)cccc3F)cc(Nc3ccc(C(=O)N4CCOCC4)cc3)c21 [Compound I-231, 2-(2,6-difluorophenyl)-4-((4-(morpholine-4-carbonyl)-phenyl)amino)-6,7-dihydro-5H-pyrrolo[3,4-b]pyridin-5-one] |  | < 0.01 | 0.01 to 0.1 | 2 to 20 |  | < 2 | 
C[C@H](C(=O)N1CCCCC1)c1ccc(Nc2nc(-c3c(F)cccc3F)nc3c2C(=O)NC3)cc1 [Compound I-206, (S)-2-(2,6-difluorophenyl)-4-((4-(1-oxo-1-(piperidin-1-yl)propan-2-yl)phenyl)amino)-6,7-dihydro-5H-pyrrolo[3,4-d]pyrimidin-5-one] |  | < 0.01 | 0.1 to 1 |  |  | < 2 | > 20
CC(=O)Nc1ccc(Nc2cc(-c3c(F)cccc3F)nc3c2C(=O)NC3)nc1 [Compound I-237, N-(6-((2-(2,6-difluorophenyl)-5-oxo-6,7-dihydro-5H-pyrrolo[3,4-b]pyridin-4-yl)amino)pyridin-3-yl)acetamide] | < 2 | < 0.01 | 0.01 to 0.1 | > 20 |  |  | 
O=C1NCc2nc(-c3c(F)cccc3F)cc(Nc3ccc(NC4CCC4)cn3)c21 [Compound I-276, 4-((5-(cyclobutylamino)pyridin-2-yl)amino)-2-(2,6-difluoro-phenyl)-6,7-dihydro-5H-pyrrolo[3,4-b]pyridin-5-one] | < 2 | < 0.01 | 0.01 to 0.1 | < 2 |  |  | 
O=C1NCc2nc(-c3c(F)cccc3F)nc(Nc3ccc(C4CCN(C5CCC5)C4=O)cc3)c21 (stereo not shown) [Compound I-117, 4-((4-(1-cyclobutyl-2-oxopyrrolidin-3-yl)phenyl)amino)-2-(2,6-difluorophenyl)-6,7-dihydro-5H-pyrrolo[3,4-d]pyrimidin-5-one] |  | < 0.01 | 0.1 to 1 |  |  | < 2 | > 20
C[C@@H]1COC[C@@H](C)N1c1ccc(Nc2cc(-c3c(F)cccc3F)nc3c2C(=O)NC3)nc1 [Compound I-263, 2-(2,6-difluorophenyl)-4-((5-((3R,5R)-3,5-dimethylmorpholino)pyridin-2-yl)amino)-6,7-dihydro-5H-pyrrolo[3,4-b]pyridin-5-one] | < 2 | < 0.01 | < 0.01 | < 2 |  |  | 
